From patent publication US11174243B2, “Succinate forms and compositions of Bruton's tyrosine kinase inhibitors” (Sunesis Pharmaceuticals, Inc., priority 2016, dated 2021)

Experiments:
human recombinant WT BTK = human recombinant WT BTK (Homo sapiens, UniProt Q06187); assay: FRET recombinant kinase assay, WT BTK; type: biochemical
primary CLL B cells = assay: Viability of primary patient CLL cells (Annexin V and propidium iodide flow cytometry); type: cell-based; settings: Homo sapiens, B-cell, 48 hours, read-out: viability, that of the untreated condition
Protocol: (§1) Methods: Primary CLL B cells were isolated from the whole blood of consented patients by FICOLL density centrifugation and rosette-sep negative selection. Annexin V and propidium iodide flow cytometry was used to measure patient CLL cell viability and 7AAD was used to measure viability in stromal co-culture. CD40 and CD86 expression was evaluated via flow cytometry subsequent to sustained 3.2 μM CpG stimulation. BCR signaling in primary CLL cells was investigated by immunoblot succeeding 1 hour treatment and following 1 hour or 24 hours of incubation with Compound 1 in XLA cell lines. MTS values were read after 24 hours of drug incubation. ITK inhibition was investigated via immunoblot after stimulation with anti-CD3 and anti-CD28 and incubation with Compound 1 for 1 hour. Compound 1 was used at a concentration of 1 μM in preclinical studies unless otherwise noted.

CYP3A4 = target: T1, CYP3A4 (Homo sapiens, UniProt P08684); assay: Phase 1a study Stage 3: drug-drug interaction with itraconazole (effect of CYP3A4 inhibition); type: in vivo; settings: for Cmax / AUC(0-t) / AUC(0-inf) / Tmax: plasma, oral; for Cmax / AUC(0-t) / AUC(0-inf): arithmetic mean (CV %); for Tmax: median (min, max)
T1 construct: from tissue; host or cells: human subjects in vivo
T1 sequence (P08684 whole entry): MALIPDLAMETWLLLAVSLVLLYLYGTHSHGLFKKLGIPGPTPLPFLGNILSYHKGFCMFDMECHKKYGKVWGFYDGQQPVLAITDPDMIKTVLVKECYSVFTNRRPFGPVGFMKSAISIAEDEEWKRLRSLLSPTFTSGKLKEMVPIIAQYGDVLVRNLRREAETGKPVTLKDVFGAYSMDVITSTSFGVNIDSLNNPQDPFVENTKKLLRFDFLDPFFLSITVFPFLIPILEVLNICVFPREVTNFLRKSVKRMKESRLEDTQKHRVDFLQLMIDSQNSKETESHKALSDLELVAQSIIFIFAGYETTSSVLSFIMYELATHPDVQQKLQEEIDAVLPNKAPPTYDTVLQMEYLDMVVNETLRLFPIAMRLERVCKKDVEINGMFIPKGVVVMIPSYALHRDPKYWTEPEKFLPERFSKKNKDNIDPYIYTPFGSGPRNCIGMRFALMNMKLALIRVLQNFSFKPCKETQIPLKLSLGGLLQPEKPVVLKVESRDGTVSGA
Protocol: Stage 3 evaluated 12 subjects from Cohort 6 who had already received Compound 2 in Stage 2 of the study. Compound 2 at a dose of 25 mg was administered once in the fasted state on Day 1 and subjects were followed for safety, PK and PD evaluations. On Day 4, subjects then received itraconazole (a potent CYP3A4 inhibitor) that was administered at a dose of 200 mg twice daily on Days 4 through 9 in the fed state (except at the morning dose on Day 7). In the morning of Day 7, subjects received itraconazole at a dose of 200 mg followed shortly by administration of Compound 2 at a dose of 25 mg (with both drugs given in the fasted state). Subjects were then followed for safety, PK and PD evaluations on Days 7, 8, 9, and 10. PK results observed following administration of Compound 2 alone on Day 1 were compared with those observed in these same subjects after administration of Compound 2 with itraconazole on Day 7.
The effect of the strong CYP3A4 inhibitor, itraconazole, on the pharmacokinetics of an oral dose of 25 mg Compound 2 was evaluated in 12 subjects (Table 7a). […].

BMX = target: T2, BMX (Homo sapiens, UniProt P51813); assay: Kinase selectivity, BMX (Kd)
T2 sequence (P51813 1-675): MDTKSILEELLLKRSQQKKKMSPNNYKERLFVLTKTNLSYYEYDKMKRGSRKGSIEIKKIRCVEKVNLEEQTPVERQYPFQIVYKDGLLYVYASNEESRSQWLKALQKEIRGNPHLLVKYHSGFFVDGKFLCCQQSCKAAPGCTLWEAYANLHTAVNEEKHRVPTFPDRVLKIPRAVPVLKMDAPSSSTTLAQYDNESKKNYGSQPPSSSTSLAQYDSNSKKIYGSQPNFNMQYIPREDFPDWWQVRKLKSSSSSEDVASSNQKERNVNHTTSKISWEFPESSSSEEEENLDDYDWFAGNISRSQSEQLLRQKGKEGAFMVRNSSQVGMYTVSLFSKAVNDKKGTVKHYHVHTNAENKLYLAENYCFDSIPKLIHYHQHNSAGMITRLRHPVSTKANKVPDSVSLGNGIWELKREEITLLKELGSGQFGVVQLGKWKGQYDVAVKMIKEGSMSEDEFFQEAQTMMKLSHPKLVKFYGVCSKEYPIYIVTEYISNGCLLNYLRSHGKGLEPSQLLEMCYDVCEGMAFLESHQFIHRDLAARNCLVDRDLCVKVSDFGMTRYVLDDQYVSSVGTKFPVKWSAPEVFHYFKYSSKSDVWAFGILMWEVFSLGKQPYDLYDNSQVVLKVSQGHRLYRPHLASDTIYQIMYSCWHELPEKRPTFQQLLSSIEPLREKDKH

[1] = tested on: primary CLL cells in the presence of HS5 stromal protection; assay: Viability of primary CLL cells in stromal co-culture (7AAD); type: cell-based; settings: Homo sapiens, CLL cell, 48 hours, read-out: decrease of viability
Protocol: as §1

CD86 expression = assay: CpG induced CD86 expression (flow cytometry); type: cell-based, human; settings: 3.2 μM CpG stimulation, 1 μM
Protocol: as §1

Single-dose PK in rat = type: in vivo, male Sprague Dawley rats; settings: male, Sprague Dawley, plasma
Protocol: A series of single-dose PK studies were conducted in rat, dog, and monkey to investigate the plasma PK of Compound 2 following single oral and single intravenous (IV) administration of Compound 2.
The PK profile of Compound 2 was evaluated in male Sprague Dawley rats (n=3) following single IV administration of Compound 2 at 1 mg/kg and single oral administration at 5 mg/kg. Following each administration serial blood samples were collected at 0 (predose), 0.08, 0.25, 0.5, 0.75, 2, 5, 10, and 24 hours postdose.

[2] = 1 mg/kg, IV, dose 1, SPEW, free base measured
[3] = 5 mg/kg, PO, dose 5, 0.1% CMC/0.2% Tween, free base measured
[4] = human, Compound 2 25 mg fasted + itraconazole
[5] = human, Compound 2 25 mg fasted, N = 12

Sequence of human recombinant WT BTK (Q06187 whole entry): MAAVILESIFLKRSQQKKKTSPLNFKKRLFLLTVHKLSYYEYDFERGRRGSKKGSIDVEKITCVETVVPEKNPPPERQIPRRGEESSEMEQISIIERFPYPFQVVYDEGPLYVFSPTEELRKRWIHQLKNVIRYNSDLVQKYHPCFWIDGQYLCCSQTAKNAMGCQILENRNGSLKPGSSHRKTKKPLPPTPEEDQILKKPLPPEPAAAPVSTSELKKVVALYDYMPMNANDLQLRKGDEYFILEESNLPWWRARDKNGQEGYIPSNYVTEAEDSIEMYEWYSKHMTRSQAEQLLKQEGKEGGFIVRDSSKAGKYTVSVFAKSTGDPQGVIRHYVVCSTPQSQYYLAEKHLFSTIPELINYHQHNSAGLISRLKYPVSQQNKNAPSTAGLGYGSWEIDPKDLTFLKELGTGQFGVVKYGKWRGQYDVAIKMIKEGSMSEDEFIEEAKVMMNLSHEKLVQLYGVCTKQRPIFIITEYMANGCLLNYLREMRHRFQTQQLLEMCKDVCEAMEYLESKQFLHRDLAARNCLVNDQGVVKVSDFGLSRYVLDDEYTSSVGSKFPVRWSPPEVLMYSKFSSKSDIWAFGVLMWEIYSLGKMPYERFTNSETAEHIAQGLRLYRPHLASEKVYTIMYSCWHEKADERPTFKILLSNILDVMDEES

## NC(=O)[C@H]1CCN(c2ncnc(N)c2F)C[C@@H]1N1CCC[C@@H](Nc2cc(Cl)cc(C(F)(F)F)c2)C1=O [Compound 1, (3R,3′R,4′S)-1′-(6-amino-5-fluoropyrimidin-4-yl)-3-((3-chloro-5-(trifluoromethyl)phenyl)amino)-2-oxo-[1,3′-bipiperidine]-4′-carboxamide]
Human recombinant WT BTK
  IC50: 4.6 nM
Primary CLL B cells; 0.1 μM
  viability at 0.1 µM: 96.7%
Primary CLL B cells; 1.0 μM
  viability at 1 µM: 96.1%
Primary CLL B cells; 10.0 μM
  viability at 10 µM: 88.1%
CYP3A4; 25 mg Compound 2 + itraconazole vs alone
  increase of plasma exposure (Cmax) with itraconazole: about 2 fold
CYP3A4; ≥5-fold increase in exposure in the presence of CYP enzyme inhibition
  CYP3A4 substrate classification: sensitive substrate for CYP3A4
BMX
  Kd: ≥ 200 nM
[1]
  cytotoxicity at 1 µM: 5.5%
CD86 expression
  decrease of CpG induced CD86 expression: 15.7%

## NC(=O)[C@H]1CCN(c2ncnc(N)c2F)C[C@@H]1N1CCC[C@@H](Nc2cc(Cl)cc(C(F)(F)F)c2)C1=O [Compound 2]
Single-dose PK in rat; [2]
  AUC(0-inf): 16100 ng·h/mL
  C0: 4370 ng/mL
  half-life: 4 h
Single-dose PK in rat; [3]
  AUC(0-inf): 14600 ng·h/mL
  Cmax: 1780 ng/mL
  Tmax: 2.6 h
Single-dose PK in rat; 5 mg/kg, PO, dose 5, 0.1% CMC/0.2% Tween, read-out: % F (oral bioavailability)
  bioavailability: 18%
CYP3A4; human, in vivo, 25 mg
  CL/F: 6.34 (41.6) L/hr
  Vd/F: 57.5 L
  half-life: 6.9 h
CYP3A4; human, Compound 2 25 mg fasted + itraconazole, N = 12
  Cmax: 1680 ng/mL
CYP3A4; [4]
  AUC(0-t): 28000 ng·h/mL
  Tmax: 1.5 h
CYP3A4; human, Compound 2 25 mg fasted + itraconazole, N = 11
  AUC(0-inf): 32200 ng·h/mL
CYP3A4; [5]
  Cmax: 873 ng/mL
  Tmax: 1 h
CYP3A4; human, Compound 2 25 mg fasted
  AUC(0-inf): 4620 ng·h/mL
  AUC(0-t): 4420 ng·h/mL
